pIC50: −log10 of the molar value.
target: T1, VEGFR-2 (Homo sapiens, UniProt P35968); test: Protein kinase activity by ELISA in vitro, VEGFR-2; type: biochemical; details: read-out: IC50 of the VEGF Receptor Kinase
T1 construct: purchased Cell Signaling Technology CO
Protocol: An ELISA (Enzyme-Linked Immunosorbent Sandwich Assay) procedure may be used to detect and measure the level of protein tyrosine kinase activity. […] According to the principle of ELISA, a monoclonal antibody can react with phosphorylated substrate specially, so biotin-labeled substrate is binded to streptavidin-coated ELISA plate, and then binded to a HRP-labeled goat anti-mouse antibody. Finally TMB is added for a color reaction and the value of A450-A630 is read by ELISA plate reader. The OD value can reflect the inhibitory activity of the VEGFR-2, PDGFR-β, c-Kit tyrosine kinases etc. treated with the test compounds at the different concentrations. So, the assay may be used to measure the inhibition ratio of the compounds for the tyrosine kinase activity. Similar assays can be designed along the same lines for any PK using techniques well known in the art.
According to the principle of ELISA, a monoclonal antibody can react with phosphorylated substrate specially, so biotin-labeled substrate is binded to streptavidin-coated ELISA plate, and then binded to a HRP-labeled goat anti-mouse antibody. Finally TMB is added for a color reaction and the value of A450-A630 is read by ELISA plate reader. The OD value can reflect the inhibitory activity of the VEGFR-2, PDGFR-β c-Kit tyrosine kinases treated with the test compounds at the different concentrations. So, the assay may be used to measure the inhibition ratio of the compounds for the tyrosine kinase activity. Similar assays can be designed along the same lines for any PK using techniques well known in the art.
VEGF Receptor 2, PDGF Receptor-beta and c-kit kinase assay kit (include kinase, 1.25M DTT, substrate peptide, 10 mM ATP, P-Tyr-100 Mouse antibody, 4×HTScan tyrosine kinase buffer), Cell Signaling Technology CO.; HRP labeled goat anti mouse IgG, Protein Tech CO.; TMB, Pierce CO.; Streptavidin Microtitration Plate, Greiner Bio-one CO.; Infinite M200 Reader, Tecan CO.
1.2.1 Immediately transfer enzyme from −80° C. to ice. Allow enzyme to thaw on ice then at 4° C. and centrifugate transiently to the bottom of centrifuge tube, then lay back on ice quickly
1.2.2 Add 10 μl of DTT (1.25 M) to 2.5 ml of 4×HTScan tyrosine kinase buffer (240 mM HEPES pH 7.5, 20 mM MgCl2, 20 mM MnCl2, 12 μM Na3VO4). Transfer 0.6 ml of DTT/Kinase buffer to each enzyme tube to make 4× reaction Cocktail. Incubate 12.5 μl of the 4× reaction cocktail with 12.5 μl/well prediluted compound of interest for 5 minutes at room temperature, and set blank control, free-enzyme control, negative control and positive control. 1.2.3 Add 10 μl 10 mM ATP to 1.25 ml 6 μM substrate peptide. Dilute the mixture with dH20 to 2.5 ml to make 2×ATP/substrate cocktail. Add 25 μl of 2×ATP/substrate cocktail to 25 μl/well preincubated reaction cocktail/compound. Incubate reaction plate at room temperature for 30 minutes. 1.2.4 Add 50 μl/well stop Buffer (50 mM EDTA, pH 8) to stop the reaction. Transfer 25 μl of each reaction and 75 μl dH2O/well to a 96-well streptavidin coated plate and incubate at room temperature for 60 minutes. Wash three times with 200 μl/well PBS/T(1×PBS, 0.05% Tween-20). 1.2.5 Dilute primary antibody, Phospho-Tyrosine mAb (P-Tyr-100), 1:500 in PBS/T with 1% BSA. Add 100 μl/well primary antibody. Incubate at room temperature for 60 minutes. Wash three times with 200 μl/well PBS/T(1×PBS, 0.05% Tween-20). 1.2.6 Prepare appropriate dilution of HRP labeled secondary antibody, 1:500 in PBS/T with 1% BSA. Add 100 μl/well secondary antibody solution. Incubate at room temperature for 30 minutes. Wash five times with 200 μl/well PBS/T 1.2.7 Add 100 μl/well TMB substrate and incubate at room temperature for 1-10 minutes. Add 50 μl 2M H2SO4 to stop the color reaction. Read the absorbance of A450-A630 with the Infinite M200 microtiter plate reader. 1.2.8 Calculate the inhibition ratio with the following formula: […]

T1 sequence (P35968 20-1356): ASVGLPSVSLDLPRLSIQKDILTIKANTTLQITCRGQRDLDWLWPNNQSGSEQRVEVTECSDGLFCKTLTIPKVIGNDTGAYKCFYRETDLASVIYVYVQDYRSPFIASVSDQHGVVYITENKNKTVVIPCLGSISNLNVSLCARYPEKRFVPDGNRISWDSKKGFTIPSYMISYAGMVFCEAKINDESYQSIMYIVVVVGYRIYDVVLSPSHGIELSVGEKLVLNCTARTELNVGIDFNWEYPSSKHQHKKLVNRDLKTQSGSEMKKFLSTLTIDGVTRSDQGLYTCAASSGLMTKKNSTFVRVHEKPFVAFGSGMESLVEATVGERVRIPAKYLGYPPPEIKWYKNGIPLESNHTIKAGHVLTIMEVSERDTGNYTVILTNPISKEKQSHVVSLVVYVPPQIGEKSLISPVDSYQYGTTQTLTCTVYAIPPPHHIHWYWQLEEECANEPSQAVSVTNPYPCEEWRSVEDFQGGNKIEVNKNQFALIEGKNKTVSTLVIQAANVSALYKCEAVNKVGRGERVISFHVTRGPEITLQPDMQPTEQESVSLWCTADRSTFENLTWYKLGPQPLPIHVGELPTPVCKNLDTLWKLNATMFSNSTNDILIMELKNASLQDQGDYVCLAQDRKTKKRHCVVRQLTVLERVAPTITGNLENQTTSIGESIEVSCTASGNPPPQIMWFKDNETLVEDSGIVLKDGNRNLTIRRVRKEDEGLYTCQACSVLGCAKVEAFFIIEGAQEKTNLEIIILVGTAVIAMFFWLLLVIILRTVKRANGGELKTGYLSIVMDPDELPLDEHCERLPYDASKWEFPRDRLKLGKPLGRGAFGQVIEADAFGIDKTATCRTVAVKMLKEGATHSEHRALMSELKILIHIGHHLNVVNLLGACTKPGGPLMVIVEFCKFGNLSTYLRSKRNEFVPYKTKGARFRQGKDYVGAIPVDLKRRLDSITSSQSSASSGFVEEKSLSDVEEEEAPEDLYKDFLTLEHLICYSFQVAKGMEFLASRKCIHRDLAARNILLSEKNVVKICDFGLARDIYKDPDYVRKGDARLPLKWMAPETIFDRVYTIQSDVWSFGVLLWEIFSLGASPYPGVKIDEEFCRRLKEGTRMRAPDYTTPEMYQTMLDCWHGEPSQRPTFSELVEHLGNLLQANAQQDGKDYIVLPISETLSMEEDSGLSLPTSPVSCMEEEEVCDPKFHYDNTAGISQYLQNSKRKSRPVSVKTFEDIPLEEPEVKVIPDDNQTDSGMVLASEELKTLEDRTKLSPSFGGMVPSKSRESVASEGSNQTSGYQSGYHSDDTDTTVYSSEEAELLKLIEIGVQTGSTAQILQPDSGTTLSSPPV

In order of falling pIC50:
1. CCN(CC)CCNC(=O)c1c(C)[nH]c2c1CCC/C2=C1/C(=O)Nc2ccc(Br)cc21 [I-36, N-(2-(diethylamino)ethyl)-2-methyl-7-[1,2-dihydro-5-bromo-2-oxo-3H-indol-(Z)-3-ylidene]-4,5,6,7-tetrahydro-1H-indole-3-carboxamide]  8.20
2. CCN(CC)CCNC(=O)c1c(C)[nH]c2c1CCC/C2=C1/C(=O)Nc2ccc(C(=O)O)cc21 [I-44, N-(2-(diethylamino)ethyl)-2-methyl-7-[1,2-dihydro-5-carboxyl-2-oxo-3H-indol-(Z)-3-ylidene]-4,5,6,7-tetrahydro-1H-indole-3-carboxamide]  8.17
3. CCN(CC)CCNC(=O)c1c(C)[nH]c2c1CCC/C2=C1/C(=O)Nc2ccc(NC(C)=O)cc21 [I-45]  8.10
4. Cc1[nH]c2c(c1C(=O)NCCN1CCCCC1)CCC/C2=C1/C(=O)Nc2ccc(F)cc21 [I-26, N-(2-(piperidin-1-yl)ethyl)-2-methyl-7-[1,2-dihydro-5-fluoro-2-oxo-3H-indol-(Z)-3-ylidene]-4,5,6,7-tetrahydro-1H-indole-3-carboxamide]  8.04
5. CCN(CC)CCNC(=O)c1c(C)[nH]c2c1CCC/C2=C1/C(=O)Nc2c(C)cc(C)cc21 [I-34, N-(2-(diethylamino)ethyl)-2-methyl-7-[1,2-dihydro-5,7-dimethyl-2-oxo-3H-indol-(Z)-3-ylidene]-4,5,6,7-tetrahydro-1H-indole-3-carboxamide]  7.96
6. CCN(CC)CCNC(=O)c1c(C)[nH]c2c1CCC/C2=C1/C(=O)Nc2cc(Cl)ccc21 [I-46, N-(2-(diethylamino)ethyl)-2-methyl-7-[1,2-dihydro-6-chloro-2-oxo-3H-indol-(Z)-3-ylidene]-4,5,6,7-tetrahydro-1H-indole-3-carboxamide]  7.96
7. CCN(CC)CCNC(=O)c1c(C)[nH]c2c1CCC/C2=C1/C(=O)Nc2cccc(F)c21 [I-49, N-(2-(diethylamino)ethyl)-2-methyl-7-[1,2-dihydro-4-fluoro-2-oxo-3H-indol-(Z)-3-ylidene]-4,5,6,7-tetrahydro-1H-indole-3-carboxamide]  7.92
8. CCN(CC)CCNC(=O)c1c(C)[nH]c2c1CCC/C2=C1/C(=O)Nc2ccc(OC)cc21 [I-53, N-(2-(diethylamino)ethyl)-2-methyl-7-[1,2-dihydro-5-methoxy-2-oxo-3H-indol-(Z)-3-ylidene]-4,5,6,7-tetrahydro-1H-indole-3-carboxamide]  7.89
9. Cc1[nH]c2c(c1C(=O)N(C)CCN(C)C)CCC/C2=C1/C(=O)Nc2ccc(F)cc21 [I-57, N-(2-(dimethylamino)ethyl)-N,2-dimethyl-7-[1,2-dihydro-5-fluoro-2-oxo-3H-indol-(Z)-3-ylidene]-4,5,6,7-tetrahydro-1H-indole-3-carboxamide]  7.89
10. Cc1[nH]c2c(c1C(=O)N1CCC[C@H]1CN1CCCC1)CCC/C2=C1/C(=O)Nc2ccc(F)cc21 [I-60]  7.85
11. Cc1[nH]c2c(c1C(=O)NCCc1ccccn1)CCC/C2=C1/C(=O)Nc2ccc(F)cc21 [I-56, N-(2-(pyridin-2-yl)ethyl)-2-methyl-7-[1,2-dihydro-5-fluoro-2-oxo-3H-indol-(Z)-3-ylidene]-4,5,6,7-tetrahydro-1H-indole-3-carboxamide]  7.77
12. CCN(CC)CCNC(=O)c1c(C)[nH]c2c1CCC/C2=C1/C(=O)Nc2ccc(S(=O)(=O)NC)cc21 [I-55, N-(2-(diethylamino)ethyl)-2-methyl-7-[N-methyl-1,2-dihydro-2-oxo-3H-indol-5-sulfonamide-(Z)-3-ylidene]-4,5,6,7-tetrahydro-1H-indole-3-carboxamide]  7.72
13. Cc1[nH]c2c(c1C(=O)NCCCN1CCOCC1)CCC/C2=C1/C(=O)Nc2ccc(F)cc21 [I-21, N-(3-morpholinopropyl)-2-methyl-7-[1,2-dihydro-5-fluoro-2-oxo-3H-indol-(Z)-3-ylidene]-4,5,6,7-tetrahydro-1H-indole-3-carboxamide]  7.57
14. Cc1[nH]c2c(c1C(=O)NCCN1CCOCC1)CCC/C2=C1/C(=O)Nc2ccc(Cl)cc21 [I-19, N-(2-morpholinoethyl)-2-methyl-7-[1,2-dihydro-5-chloro-2-oxo-3H-indol-(Z)-3-ylidene]-4,5,6,7-tetrahydro-1H-indole-3-carboxamide]  7.51
15. CCN(CC)CCNC(=O)c1c(C)[nH]c2c1CCC/C2=C1/C(=O)Nc2ccc(C(=O)Nc3ccc(F)cc3)cc21 [I-51, N-(2-(diethylamino)ethyl)-2-methyl-7-[N-(4-fluorophenyl)-5-carboxamide-1,2-dihydro-2-oxo-3H-indol-(Z)-3-ylidene]-4,5,6,7-tetrahydro-1H-indole-3-carboxamide]  7.27
16. CCN(CC)CCNC(=O)c1c(C)[nH]c2c1CCC/C2=C1/C(=O)Nc2c(F)cccc21 [I-40, N-(2-(diethylamino)ethyl)-2-methyl-7-[1,2-dihydro-7-fluoro-2-oxo-3H-indol-(Z)-3-ylidene]-4,5,6,7-tetrahydro-1H-indole-3-carboxamide]  7.09

From US8084621B2, “3-Pyrrolo[b]cyclohexylene-2-dihydroindolinone derivatives and uses thereof” (Jiangsu Simcere Pharmaceutical R&D Co. Ltd., priority 2006, dated 2011)
